Assay results as given in ChEMBL document CHEMBL4152377, “Design and Activity of Specific Hypoxia-Inducible Factor-2α (HIF-2α) Inhibitors for the Treatment of Clear Cell Renal Cell Carcinoma: Discovery of Clinical Candidate ( S)-3-((2,2-Difluoro-1-hydroxy-7-(methylsulfonyl)-2,3-dihydro-1 H-inden-4-yl)oxy)-5-fluorobenzonitrile (PT2385)” (J Med Chem, 2018).
Each block holds one compound with its values, some of them ahead of it. Activity calls are given as the source filed them. The rule behind the calls is not given here.

Key:
[1] = biological target: T1, Endothelial PAS domain-containing protein 1 (Homo sapiens, UniProt Q99814)
T1 sequence (Q99814 whole entry, the tested form may be a part): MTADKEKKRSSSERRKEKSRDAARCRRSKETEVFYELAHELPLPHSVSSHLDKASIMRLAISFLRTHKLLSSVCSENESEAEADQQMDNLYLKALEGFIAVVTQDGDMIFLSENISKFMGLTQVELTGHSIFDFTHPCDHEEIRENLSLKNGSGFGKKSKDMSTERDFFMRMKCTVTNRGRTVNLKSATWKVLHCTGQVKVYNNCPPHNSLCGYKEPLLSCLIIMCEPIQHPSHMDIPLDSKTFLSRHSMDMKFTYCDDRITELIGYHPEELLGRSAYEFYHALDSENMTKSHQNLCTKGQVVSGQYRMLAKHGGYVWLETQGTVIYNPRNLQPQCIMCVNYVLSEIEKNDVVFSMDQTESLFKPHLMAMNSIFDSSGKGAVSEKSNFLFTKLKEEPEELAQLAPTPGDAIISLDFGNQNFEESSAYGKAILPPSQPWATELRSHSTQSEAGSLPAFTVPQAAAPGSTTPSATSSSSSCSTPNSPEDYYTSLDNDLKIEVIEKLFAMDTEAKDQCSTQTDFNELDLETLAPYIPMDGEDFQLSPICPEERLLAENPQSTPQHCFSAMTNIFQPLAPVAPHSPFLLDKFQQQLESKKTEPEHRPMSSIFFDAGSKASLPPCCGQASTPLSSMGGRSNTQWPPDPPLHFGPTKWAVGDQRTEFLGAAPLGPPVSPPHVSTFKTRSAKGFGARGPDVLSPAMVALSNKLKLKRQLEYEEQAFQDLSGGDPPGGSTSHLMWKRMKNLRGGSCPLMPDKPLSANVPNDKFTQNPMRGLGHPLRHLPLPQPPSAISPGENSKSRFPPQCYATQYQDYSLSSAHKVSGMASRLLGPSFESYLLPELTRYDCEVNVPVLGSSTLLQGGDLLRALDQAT

[2] = biological target: T1, Endothelial PAS domain-containing protein 1; remark: listed apart in the source
[3] = test system: 786-0; assay: In vivo inhibition of HIF-2alpha in SCID/Biege mouse xenografted with human 786-O cells assessed as reduction in tumor derived VEGFA protein levels at 10 mg/kg, po bid for 3 days and measured after 12 hrs post last dose by ELISA; type: functional, organism-based
[4] = test system: Mus musculus; assay: In vivo inhibition of HIF-2alpha in SCID/Biege mouse xenografted with human 786-O cells assessed as reduction in CCND1 mRNA levels at 10 mg/kg, po bid for 3 days and measured after 12 hrs post last dose by qRT-PCR analysis; type: functional, organism-based
[5] = Oral bioavailability in Sprague-Dawley rat at 10 mg/kg administered via gavage by UPLC analysis; type: ADME, organism-based; details: in vivo
[6] = Oral bioavailability in CD1 mouse at 10 mg/kg by UPLC analysis; type: ADME, organism-based; details: in vivo
[7] = AUCt in CD1 mouse at 10 mg/kg, po by UPLC analysis; type: ADME, organism-based; details: in vivo
[8] = Half life in CD1 mouse at 10 mg/kg, po by UPLC analysis; type: ADME, organism-based; details: in vivo
[9] = test system: Mus musculus; assay: Toxicity in SCID/Biege mouse xenografted with human 786-O cells assessed as mortality at 10 mg/kg, po bid for 21 days; type: organism-based; details: in vivo, 504 h
[10] = Intrinsic clearance in mouse liver microsomes at 1 uM measured up to 30 mins by LC-MS/MS analysis; type: ADME, microsome; details: read-out: CLH
[11] = Clearance in Sprague-Dawley rat at 3 mg/kg, iv by UPLC analysis; type: ADME, organism-based; details: in vivo
[12] = test system: Mus musculus; assay: Minimum drug level in SCID/Biege mouse xenografted with human 786-O cells at 10 mg/kg, po bid for 3 days and measured after 12 hrs post last dose by LC-MS/MS analysis; type: ADME, organism-based; details: in vivo
[13] = Volume of distribution at steady state in CD1 mouse at 3 mg/kg, iv by UPLC analysis; type: ADME, organism-based; details: in vivo, read-out: Vdss
[14] = Apparent permeability across apical to basolateral side in MDCK-MDR1 cells at 1 uM after 1 hr by LC/MS/MS analysis; type: ADME, cell-based, Canis lupus familiaris; details: dog
[15] = test system: Mus musculus; assay: Toxicity in SCID/Biege mouse xenografted with human 786-O cells assessed as effect on body weight at 10 mg/kg, po bid for 21 days; type: organism-based; details: in vivo, 504 h
[16] = test system: 786-0; assay: Antitumor activity against human 786-O cells xenografted in SCID/Biege mouse assessed as tumor regression at 10 mg/kg, po bid for 21 days; type: functional, organism-based
[17] = Volume of distribution at steady state in Sprague-Dawley rat at 3 mg/kg, iv by UPLC analysis; type: ADME, organism-based; details: in vivo, read-out: Vdss
[18] = Plasma concentration in mouse after 12 hrs; type: ADME, cell-free
[19] = Protein binding in mouse plasma at 10 uM after 4 hrs by LC-MS/MS analysis; type: ADME, cell-free; details: read-out: PPB (converted)
[20] = Clearance in CD1 mouse at 3 mg/kg, iv by UPLC analysis; type: ADME, organism-based; details: in vivo
[21] = AUCt in Sprague-Dawley rat at 10 mg/kg, po via gavage by UPLC analysis; type: ADME, organism-based; details: in vivo
[22] = Half life in Sprague-Dawley rat at 10 mg/kg, po via gavage by UPLC analysis; type: ADME, organism-based; details: in vivo
[23] = test system: Mus musculus; assay: In vivo inhibition of HIF-2alpha in SCID/Biege mouse xenografted with human 786-O cells assessed as reduction in VEGFA mRNA levels at 10 mg/kg, po bid for 3 days and measured after 12 hrs post last dose by qRT-PCR analysis; type: functional, organism-based
[24] = test system: Mus musculus; assay: Toxicity in SCID/Biege mouse xenografted with human 786-O cells assessed as morbidity at 10 mg/kg, po bid for 21 days; type: organism-based; details: in vivo, 504 h
[25] = test system: Rattus norvegicus; assay: Drug level in Sprague-Dawley rat treated with 10 mg/kg, po (R)-3-((4-(Difluoromethyl)-2,2-difluoro-3-hydroxy-1,1-dioxido-2,3-dihydrobenzo[b]thiophen-5-yl)oxy)-5-fluorobenzonitrile assessed as compound formation by UPLC analysis; type: ADME, organism-based; details: in vivo
[26] = biological target: T1, Endothelial PAS domain-containing protein 1; assay: Antagonist activity at HIF-2alpha in human 786-O cells assessed as free plasma adjusted EC50 for reduction in VEGFA concentration after 24 hrs by ELISA; type: cell-based
[27] = biological target: T1, Endothelial PAS domain-containing protein 1; assay: Antagonist activity at HIF-2alpha in human 786-O cells assessed as reduction in VEGFA concentration after 24 hrs by ELISA; type: cell-based
[28] = Efflux ratio of apparent permeability in MDCK-MDR1 cells at 1 uM after 1 hr by LC/MS/MS analysis; type: ADME, cell-based, Canis lupus familiaris; details: dog

Structure (SMILES): O=C(O)c1cc(S(=O)(=O)C(F)(F)F)ccc1Oc1cc(F)cc(Cl)c1
IC50 [1]: 44400 nM

Structure (SMILES): O=S1(=O)CCC(O)c2c1ccc(Oc1cc(F)cc(F)c1)c2C(F)F (stereo unspecified)
IC50 [1]: 3200 nM

Structure (SMILES): N#Cc1cc(F)cc(Oc2ccc(S(=O)(=O)C(F)F)c3c2CC(F)(F)[C@H]3O)c1
inhibition [3]: Active
inhibition [4]: Active
bioavailability [5]: 6%
bioavailability [6]: 67%
AUC(0-t) [7]: 7.3 µM·h
half-life [8]: 7.3 h
Activity [9]: Non-Toxic
CLint scaled at 1 µM [10]: 32.2 mL/min/kg
clearance [11]: 57.7 mL/min/kg
Drug uptake [12]: Active
Vd [13]: 7.4 L/kg
Papp A→B at 1 h, 1 µM [14]: 2.84 ×10⁻⁶ cm/s
Activity [15]: Non-Toxic
Activity [16]: Active
Vd [17]: 5.55 L/kg
concentration at 12 h [18]: 380 nM
fraction unbound at 4 h, 10 µM [19]: 0.06
clearance [20]: 34.3 mL/min/kg
AUC(0-t) [21]: 0.39 µM·h
half-life [22]: 5.4 h
inhibition [23]: Active
Activity [24]: Non-Toxic

Structure (SMILES): NC(=O)c1cc(S(=O)(=O)C(F)(F)F)ccc1Oc1cc(F)cc(Cl)c1
IC50 [1]: 22600 nM

Structure (SMILES): O=S1(=O)c2ccc(Oc3cc(F)cc(Cl)c3)c(C(F)(F)F)c2C(O)C1(F)F (stereo unspecified)
EC50 [2]: 100 nM

Structure (SMILES): COCc1c(S(=O)(=O)C(F)F)ccc(Oc2cc(F)cc(Cl)c2)c1Cl
IC50 [1]: 4200 nM

Structure (SMILES): O=S1(=O)c2ccc(Oc3cc(F)cc(Cl)c3)cc2C(O)C1(F)F (stereo unspecified)
IC50 [1]: 1100 nM

Structure (SMILES): O=S(=O)(c1ccc(Oc2cncc(Cl)c2)c2c1[C@H](O)C(F)(F)C2)C(F)F
inhibition [3]: inactive
inhibition [4]: inactive
bioavailability [6]: 101%
AUC(0-t) [7]: 5.44 µM·h
half-life [8]: 5.3 h
Activity [9]: Non-Toxic
CLint scaled at 1 µM [10]: 20.1 mL/min/kg
Drug uptake [12]: Not Active
Vd [13]: 25 L/kg
Papp A→B at 1 h, 1 µM [14]: 2.79 ×10⁻⁶ cm/s
Activity [15]: Non-Toxic
Activity [16]: inactive
concentration at 12 h [18]: 560 nM
fraction unbound at 4 h, 10 µM [19]: 0.06
clearance [20]: 58.2 mL/min/kg
inhibition [23]: inactive
Activity [24]: Non-Toxic

Structure (SMILES): N#Cc1cc(F)cc(Oc2ccc3c(c2C(F)F)C(=O)C(F)(F)S3(=O)=O)c1
Drug uptake [25]: Active

Structure (SMILES): O=S1(=O)c2ccc(Oc3cc(F)cc(Cl)c3)c(C(F)F)c2C(O)C1(F)F (stereo unspecified)
EC50 [2]: 17 nM

Structure (SMILES): COC(=O)c1cc(S(=O)(=O)C(F)(F)F)ccc1Oc1cc(F)cc(Cl)c1
IC50 [1]: 52900 nM

Structure (SMILES): N#Cc1cc(F)cc(Oc2ccc(S(=O)(=O)CF)c3c2CC(F)(F)[C@H]3O)c1
EC50 [26]: 182 nM
inhibition [3]: Active
inhibition [4]: Active
bioavailability [5]: 32%
bioavailability [6]: 91%
AUC(0-t) [7]: 9.46 µM·h
half-life [8]: 5.5 h
Activity [9]: Non-Toxic
CLint scaled at 1 µM [10]: 26.9 mL/min/kg
clearance [11]: 57.6 mL/min/kg
Drug uptake [12]: Active
Vd [13]: 12.6 L/kg
EC50 [27]: 20 nM
Papp A→B at 1 h, 1 µM [14]: 2.73 ×10⁻⁶ cm/s
Activity [15]: Non-Toxic
EC50 [2]: 9 nM
efflux ratio at 1 h, 1 µM [28]: 1.04
Activity [16]: Active
Vd [17]: 6.15 L/kg
concentration at 12 h [18]: 1100 nM
fraction unbound at 4 h, 10 µM [19]: 0.11
clearance [20]: 32.3 mL/min/kg
AUC(0-t) [21]: 2.14 µM·h
half-life [22]: 2.9 h
inhibition [23]: Active
Activity [24]: Non-Toxic

Structure (SMILES): N#Cc1cc(F)cc(Oc2ccc(S(=O)(=O)C(F)(F)F)c3c2CC(F)(F)[C@H]3O)c1
EC50 [2]: < 5 nM

Structure (SMILES): O=S1(=O)CC(O)c2c1ccc(Oc1cc(F)cc(Cl)c1)c2Br (stereo unspecified)
IC50 [1]: 2400 nM
EC50 [2]: 7200 nM

Structure (SMILES): O=S1(=O)c2ccc(Oc3cncc(Cl)c3)c(C(F)F)c2C(O)C1(F)F (stereo unspecified)
IC50 [1]: 350 nM
EC50 [2]: 630 nM

Structure (SMILES): O=[N+]([O-])c1c(Nc2cc(F)cc(Cl)c2)ccc2nonc12
IC50 [1]: 490 nM

Structure (SMILES): CC1(C)C(O)c2c(ccc(Oc3cc(F)cc(Cl)c3)c2Br)S1(=O)=O (stereo unspecified)
IC50 [1]: 19600 nM

Structure (SMILES): NCc1c(S(=O)(=O)C(F)F)ccc(Oc2cc(F)cc(Cl)c2)c1Br
IC50 [1]: 700 nM

Structure (SMILES): CS(=O)(=O)c1ccc(Oc2cc(F)cc(C#N)c2)c2c1C(O)C(F)(F)CC2 (racemic)
IC50 [1]: 3600 nM

Structure (SMILES): CC(O)c1ccc(Nc2cc(F)cc(Cl)c2)c([N+](=O)[O-])c1 (stereo unspecified)
IC50 [1]: 12700 nM

Structure (SMILES): N#Cc1cc(F)cc(Oc2ccc(S(=O)(=O)C(F)F)c(C(=O)O)c2C(F)F)c1
IC50 [1]: > 100000 nM

Structure (SMILES): CC(=O)NCc1c(S(=O)(=O)C(F)F)ccc(Oc2cc(F)cc(Cl)c2)c1Br
IC50 [1]: 18200 nM

Structure (SMILES): CNS(=O)(=O)c1ccc(Nc2cc(F)cc(Cl)c2)c([N+](=O)[O-])c1
IC50 [1]: 4200 nM

Structure (SMILES): O=S(=O)(c1ccc(Oc2cc(F)cc(Cl)c2)c(CO)c1)C(F)(F)F
IC50 [1]: 1200 nM

Structure (SMILES): CS(=O)(=O)c1ccc(Oc2cc(F)cc(Cl)c2)c(Br)c1
IC50 [1]: 4400 nM

Other lines, results leading:

IC50 [1]: < 5 nM
EC50 [2]: 43 nM
Structure (SMILES): O=S1(=O)c2ccc(Oc3cc(F)cc(Cl)c3)c(Br)c2C(O)C1(F)F (stereo unspecified)

IC50 [1]: 20 nM
EC50 [2]: 340 nM
Structure (SMILES): Cc1c(Oc2cc(F)cc(Cl)c2)ccc2c1C(O)C(F)(F)S2(=O)=O (stereo unspecified)

IC50 [1]: 280 nM
Structure (SMILES): O=[N+]([O-])c1cc(C(F)(F)F)ccc1Nc1cc(F)cc(Cl)c1

IC50 [1]: 34 nM
EC50 [2]: 11600 nM
Structure (SMILES): N#Cc1cc(S(=O)(=O)C(F)(F)F)ccc1Oc1cc(F)cc(Cl)c1

IC50 [1]: 32 nM
Structure (SMILES): O=[N+]([O-])c1cc(S(=O)(=O)C(F)(F)F)ccc1Oc1cc(F)cc(Cl)c1

IC50 [1]: 170 nM
EC50 [2]: 3700 nM
Structure (SMILES): O=S(=O)(c1ccc(Oc2cc(F)cc(Cl)c2)c(Br)c1)C(F)(F)F

IC50 [1]: 49 nM
EC50 [2]: 9200 nM
Structure (SMILES): N#Cc1c(Oc2cc(F)cc(Cl)c2)ccc2c1C(O)C(F)(F)S2(=O)=O (stereo unspecified)

IC50 [1]: < 5 nM
EC50 [2]: 20 nM
Structure (SMILES): O=S(=O)(c1ccc(Oc2cc(F)cc(Cl)c2)c2c1C(O)C(F)(F)C2)C(F)F (racemic)

IC50 [1]: 180 nM
EC50 [2]: 2200 nM
Structure (SMILES): O=S(=O)(c1ccc(Oc2cc(F)cc(Cl)c2)c(Br)c1)C(F)F

IC50 [1]: 140 nM
EC50 [2]: 3400 nM
Structure (SMILES): O=S(=O)(c1ccc(Oc2cc(F)cc(Cl)c2)c(Cl)c1)C(F)(F)F

IC50 [1]: 140 nM
EC50 [2]: 180 nM
Structure (SMILES): N#Cc1cncc(Oc2ccc3c(c2C(F)F)C(O)C(F)(F)S3(=O)=O)c1 (stereo unspecified)

IC50 [1]: 16 nM
Structure (SMILES): O=[N+]([O-])c1cc(S(=O)(=O)C(F)F)ccc1Nc1cc(F)cc(Cl)c1

IC50 [1]: 280 nM
Structure (SMILES): O=[N+]([O-])c1cc(S(=O)(=O)CF)ccc1Nc1cc(F)cc(Cl)c1
